The values that follow come from patent publication US6537800B1, “Apparatus for automatically measuring minute membrane potential” (Center for Advanced Science and Technology Incubation, Ltd., priority 1998, dated 2003).

Data set [1] has as its system PC12 cells. The data set can be described thus: Cell survival rate after injection process (LY retaining rate). It is filed as cell-based, rat. The procedure: A cell survival rate after the injection process was compared between cells subjected to the normal microinjection process using the physical shearing force and cells subjected to the photosensitizing microinjection.
The LY was injected into the cell by means of microinjection. In a dead cell with its cell membrane collapsed, the LY disperses quickly to lose its color [Cell, 14, 741-759 (1987)]. Thus, using a rate at which the cell subjected to the injection process holds the LY, as an index indicating the cell survival rate, the survival rates 3 and 6 days after the injection process were compared to each other.
In FIG. 13, the axis of abscissa indicates the number of days passing after the injection process (unit: day), while the axis of ordinate indicates the survival rate (units %).

Data set [2] relates to PC12 cells. Kind of data set: Membrane resistance and membrane potential after light irradiation (patch clamp). Type of data set: cell-based, rat. The procedure:
Since minute membrane defects must be monitored at a cell level for a period of time in the order of seconds to several minutes including a recovery process, the patch clamp method, which is used for electrophysiological experiments, was used to measure the potential between the cell membranes or ion current transmitted through the cell membrane.
The photosensitizer BAT was dispersed in a HEPES (25 mM, pH 7.4) buffer.
The cells were incubated in a culture medium for electrophysiological experiments at roam temperature. The culture medium used for this experiment was composed of 124 mM of NaCl, 5 mM of KCl, 2.4 mM of CaCl2.2H2O, 1.3 mM of MgSO4.7H2O, and 10 mM of glucose, with a final pH adjusted to 7.4 by addition of NaOH. To prevent the averse effects of evaporation, the culture medium for electrophysiological experiments was replaced with a new at the intervals of 40 minutes at maximum.
The BAT was added so as to have a final Concentration of 49 μM. The quantity of light applied was set at three levels: 0.47 J/cm^2, 0.94 J/cm^2, and 1.57 J/cm^2.
A liquid in the patch electrode was composed of 132 mM of KCl, 8 mM of NaCl, 2 mM of MgCl2, 30 mM of HEPES, 4 mM of Na2ATP, 0.3 mM of GTP, and 0.5 mM of EGTA, with a final pH adjusted to 7.3 by addition of NaOH.
Since a zoom function allows light to be concentrated in an area smaller than a normal area, the amount of light per unit area increases in proportion to the square of a zoom magnification. The excitation light is transmitted through the plastic of the collagen coat dish before actually reaching the cell, so that a decrease in light quantity must actually be taken into consideration.
In irradiating the cell with the excitation light, a TTL signal operating in connection with an electrophysiological record is transmitted to the light source as required to synchronize the light irradiation with electric measurements.
Before starting the electrophysiological experiments, the cell membrane potential had been maintained between −80 and −60 mV.
The cell membrane potential measuring amplifier was Axpopatch 1-D (Axon Instruments). The membrane resistance was calculated from a change in membrane potential occurring when a 1-Hz rectangular-wave overpolarization current flowed through the membrane for 350 milliseconds. The amount of, current supplied (0.1 or 0.15 nA) was selected so that the change in membrane potential would not exceed 30 mV when power was supplied. Under these experimental conditions, the PC12 cell generated no action potential. Measured potential and current values were analyzed using Axoscope ver. 1.1 (manufactured by Axon Instruments).
In FIG. 9, the axis of abscissa indicates an elapsed time (unit: second). The axis of ordinate indicates the resistance of the cell membrane (unit: %) in the upper part and the potential thereof in the lower part, both values being normalized by setting corresponding values prior to irradiation equal to […]. The membrane resistance reflects the ion transmission inhibiting capability, and the membrane potential reflects the active ion transporting capability of the membrane effected by activities of various intermembrane ion transporting systems as well as the ion transmission inhibiting capability.
A microinjection device was connected to a minute glass pipette held in a micromanipulator, and the minute glass pipette was filled with a solution with the photosensitizer BAT dispersed therein (BAT concentration: 2 mM, water solvent). The glass pipette was located in such a manner that its tip was connected to the patch electrode and located within 200 μm from a cell for which the membrane potential and resistance were to be measured.

In data set [3] the test system is PC12 cells. Kind of data set: Microinjection success rate (Lucifer Yellow injection) using photosensitized membrane destruction. It is filed as cell-based, rat. Conditions: BAT-containing injection liquid, no light applied, capillary kept in contact with cell, n=30. The procedure: To determine whether the microinjection process was successful, the water-soluble fluorescent pigment Lucifer Yellow CH (LY)was added to an injection liquid. […] Evaluation was made to determine how the success rate of injection of the LY into the cell varied depending on the presence of the photosesirizer BAT in the injection liquid or the presence of application of the BAT exciting light.
To make the microinjection successful, a glass capillary having a diameter of several hundred nanometers at a tip opening thereof must be brought into contact with the cell at a high speed to physically instantaneously penetrate and punch the cell membrane. In the experiments, an electric micromanipulator (manufactured by Eppendorf; Micromanipulator 5171) and an electric injector (manufactured by Eppendorf; Transjector 5246), which can both operate under the control of a program, could be used to set a speed at which the capillary contacted with the membrane, at an arbitrary value. In addition, the injection capillary was a commercially available product (manufactured by Eppendorf; FemtoTips) mass-produced for the above apparatuses. […]

A further data set can be described thus: Water solubility. Type of data set: physicochemical. From the text: A thiophen oligomer having an aminomethyl group at a terminal thereof has a higher water solubility than any other derivative of the same kind due to this terminal aminomethyl group. The water solubility varies depending on how the aminomethyl group is released. […] By irrigating the cell with the BAT-dispersed solution under the above pH condition, this molecule can be easily added to a surface of the cell. The hydrophilic property of the BAT molecule is new and is absent from the other modified thiophen oligomers including an a terthienyl derivative as well as other molecules designed as conductive high-molecular monomers.

Setting [4] is: B: 4.94 J/cm^2 light, BAT 49 μM, several seconds after irradiation.

Consider `NNC(=O)NN1C(=O)c2cc(S(=O)(=O)O)cc3c(N)c(S(=O)(=O)O)cc(c23)C1=O` [LY, Lucifer Yellow CH, reference compound], for which, in the data set on PC12 cells [1] (control examples: normal injection, 3 days after the injection), the survival rate was 17%.

For the molecule `Cl.Cl.NCc1ccc(-c2ccc(-c3ccc(CN)s3)s2)s1` [BAT, 5′5″-bis(aminomethyl)-2,2′:5′2″-terthiophene dihydrochloride], the “cell membrane resistance and membrane potential after light irradiation” value is “varied slightly but not significantly” in the data set on PC12 cells [2] (A: 0.47 J/cm^2 light, BAT 49 μM, 363-nm argon ion laser) and “lost” with PC12 cells [2] (C: 1.57 J/cm^2 light, BAT 49 μM, then remained at fixed values (irreversible)). For the same molecule, the “cell membrane resistance after light irradiation” value in the data set on PC12 cells [2] (setting [4]) is on record as “decreased”. Further, in the data set on PC12 cells [2] (setting [4]), the “membrane potential after light irradiation” value is recorded as “depolarized”. In addition, the “cell membrane potential after laser beam” value in the data set on PC12 cells [2] (BAT 2 mM dispersed solution ejected from minute glass pipette onto target cell, laser as in Example 3) is given as “depolarized”. In the data set on PC12 cells [2] (C: 1.57 J/cm^2 light, BAT 49 μM), the “time after light irradiation to loss of membrane resistance and potential” value is listed as “about 8 seconds”. The injection success rate with PC12 cells [3] is reported as 13%. For the same molecule, the water solubility result is reported as “easily soluble” in “Water solubility” (acid water solution (bivalent positive charge)) and “maintains a high water solubility” in “Water solubility” (water solution with biologically suitable pH range (near 7.4), univalent positive charge type). Besides, the “cell survival rate (LY retention)” value with PC12 cells [1] (photosensitizing injection (BAT + light), three to six days after injection) is on record as “about 90%”.
